Key:
[1] = test system: CT26 colon carcinoma cells; test: CT26 tumor model, metabolite monotherapy i.p. without α-PD-1; format: in vivo, BALB/c mice; conditions: monotherapy without α-PD-1 IgG; i.p. DHB 2.4 mg or 3-methylhistidine 3 mg per dose
Method: FIG. 7: a-d) In vitro cell viability of DHB at various concentrations in activated T cells, MC38, B16F10, and CT26 tumor cells. e) BALB/c mice were s.c. inoculated with 1.5×10^5 CT26 colon carcinoma cells. DHB (2.4 mg per dose) or 3-methylhistidine (3 mg per dose) was i.p. injected 3 times every 4 days, 100 μg α-PD-1 was i.p. injected on days 11, 15, and 20. Shown is the average tumor growth. Data represent the mean±s.e.m. (n=4-5).

OT-I CD8+ T cells [2] = test: Tcm differentiation of isolated OT-I CD8+ T cells activated with α-CD3/α-CD28 in the absence of dendritic cells; format: cell-based, mice; conditions: α-CD3/α-CD28 activation; 3-methylhistidine 3 mM, DHB 100 μM; day 7
Method: (§1) FIG. 2: a) OT-I CD8+ T cells were cultured with different metabolites in vitro as indicated, b,c) shown is the frequency of CD44^+CD62L^+ Tcm CD8+ T cells on day 8. d) OT-I CD8+ T cells were activated with α-CD3/α-CD28 antibodies in presence of metabolites as indicated and shown is the Tcm CD8+ T cells on day 7. Data represent the mean±s.e.m. (n=5).
(§2) Splenocytes from OT-I mice were obtained aseptically. The cells were cultured in 96-well plates (1×10^5 cells per well). For Tcm differentiation study, cells were activated with SIINFEKL peptide (4×10^−9M) in the presence of various metabolites (arginine: 3 mM; 3-methylhistidine: 3 mM; N-acetylneuraminate: 100 μM; disodium sebacate: 100 μM; DHB: 100 μM; pantothenate: 100 μM; γ-aminobutyric acid: 100 μM; glycerol: 100 μM; AICAR: 100 μM, sodium ferulate: 100 μM) for 3 days. Then cells were washed three times with T-cell medium and further cultured with IL-2 (10 ng ml^−1; PeproTech) in the presence of metabolites for 5 days. The cells were then washed twice and re-activated with SIINFEKL peptide (10 μM) for 2 h. The suspension cells were collected, blocked with CD16/32 antibody and stained with the fixable viability dye eFluor 450, FITC-CD44 rat anti-human/mouse and PE-CD62L monoclonal antibody. […] Tcf1^+CD8^+, CD44^+CD62L^+CD8^+ and survival (stained with Annexin V-APC and PI) T cells were detected via flow cytometry.

[3] = test system: CT26 colon carcinoma cells; test: CT26 tumor model, intratumoral metabolites plus α-PD-1; format: in vivo, BALB/c mice
Method: FIG. 5: a) Therapeutic treatment regimen. BALB/c mice were s.c. inoculated with 1.5×10^5 CT26 colon carcinoma cells. The candidate metabolites were injected intratumorally every other day, 100 μg α-PD-1 was i.p. injected on days 9, 12, 16 and 20. b) Average tumor growth, c) individual tumor growth, and d) overall Kaplan-Meier survival are shown. Data represent the mean±s.e.m. (n=5).
(§3) Animals were cared for following the federal, state and local guidelines. All work conducted on animals was in accordance with and approved by the Institutional Animal Care and Use Committee (IACUC). Female (6-8 weeks old) BALB/c mice from Jackson Laboratory were inoculated with 1.5×10^5 CT26 cells per mouse on the right flank by s.c. injection. Tumor-bearing mice were randomly assigned to different treatment groups. For intratumoral injection study, the mice were injected with 3-methylhistidine (dose: 1 mg per mouse), sodium hippurate (dose: 1 mg per mouse), disodium sebacate (dose: 1 mg per mouse), sodium ferulate (dose: 1 mg per mouse), or DHB (dose: 0.5 mg per mouse) in 40 μL PBS buffer for every other day. The mice were i.p. injected with α-PD-1 antibody (100 μg per dose; clone RMP1-14, Bioxcell) on days 9, 12, 16 and 20 post tumor inoculation. For oral administration study, the mice were injected with 3-methylhistidine (dose: 3 mg per mouse), sodium hippurate (dose: 3 mg per mouse), disodium sebacate (dose: 3 mg per mouse), sodium ferulate (dose: 3 mg per mouse), or DHB (dose: 2.4 mg per mouse) in PBS buffer for 3 times every 4 days. α-PD-1 was injected on days 10, 14, 18 and 22. The tumor size was measured, and the tumor volume was calculated as ½×(length×width^2). Tumor-bearing mice were euthanized when the tumor size reached 1.5 cm in any diameter or when the animals became moribund with severe weight loss (>20%) or tumor ulceration.

OT-I CD8+ T cells [4] = test: Tcf1+CD8+ differentiation of OT-I T cells with metabolites; format: cell-based, mice; conditions: day 6
Method: FIG. 3: a) OT-I CD8+ T cells were cultured with different metabolites in vitro as indicated, b,c) shown are the frequency of the Tcf1^+CD8+ T cells and the representative flow cytometry plots on day 6. Data represent the mean±s.e.m. (n=5).
as §2, with “antibody. To test if the central memory CD8+ T cells differentiation is dependent on dendritic cells, CD8 T cells isolated from the spleen in OT-I mice were incubated in the 96-well plate, which was precoated with anti-hamster IgG antibody. […] (1 μg mL^−1) and IL-2 (100 U mL^−1) were added into each well in the presence of 3-methylhistidine (3 mM), DHB (100 μM), or sodium ferulate (100 μM) for 2 days. Then cells were washed for three times to remove α-CD3/α-CD28 antibodies and further incubated with metabolites and IL-2 (10 ng ml^−1) for 5 days. Thereafter, cells were collected for central memory CD8^+ T cells analysis. For CD8^+ T cells survival study, cells were activated with antigen peptide as above, following with thoroughly washing, and incubation in presence of IL-2 for 2 days.” for “antibody.”

OT-I CD8+ T cells [5] = test: In vitro central memory (Tcm) differentiation of OT-I CD8+ T cells activated with SIINFEKL peptide and IL-2 with metabolites; format: cell-based, mice; conditions: day 8; metabolite-supplemented medium (arginine 3 mM, 3-methylhistidine 3 mM, DHB 100 μM, sodium ferulate 100 μM)
Method: as §1
(§4) Splenocytes from OT-I mice were obtained aseptically. The cells were cultured in 96-well plates (1×10^5 cells per well). For Tcm differentiation study, cells were activated with SIINFEKL peptide (4×10^−9M) in the presence of various metabolites (arginine: 3 mM; 3-methylhistidine: 3 mM; N-acetylneuraminate: 100 μM; disodium sebacate: 100 μM; DHB: 100 μM; pantothenate: 100 μM; γ-aminobutyric acid: 100 μM; glycerol: 100 μM; AICAR: 100 μM, sodium ferulate: 100 μM) for 3 days. Then cells were washed three times with T-cell medium and further cultured with IL-2 (10 ng ml^−1; PeproTech) in the presence of metabolites for 5 days. The cells were then washed twice and re-activated with SIINFEKL peptide (10 μM) for 2 h. The suspension cells were collected, blocked with CD16/32 antibody and stained with the fixable viability dye eFluor 450, FITC-CD44 rat anti-human/mouse and PE-CD62L monoclonal antibody. To test if the central memory CD8+ T cells differentiation is dependent on dendritic cells, CD8 T cells isolated from the spleen in OT-I mice were incubated in the 96-well plate, which was precoated with anti-hamster IgG antibody. […] (1 μg mL^−1) and IL-2 (100 U mL^−1) were added into each well in the presence of 3-methylhistidine (3 mM), DHB (100 μM), or sodium ferulate (100 μM) for 2 days. Then cells were washed for three times to remove α-CD3/α-CD28 antibodies and further incubated with metabolites and IL-2 (10 ng ml^−1) for 5 days. Thereafter, cells were collected for central memory CD8^+ T cells analysis. For CD8^+ T cells survival study, cells were activated with antigen peptide as above, following with thoroughly washing, and incubation in presence of IL-2 for 2 days. Metabolites were added during this incubation (arginine: 3 mM, 1 mM; 3-methylhistidine: 3 mM, 1 mM, 500 μM, 100 μM; N-acetylneuraminate: 100 μM; disodium sebacate: 100 μM; DHB: 100 μM, 50 μM, 20 μM; pantothenate: 100 μM; γ-aminobutyric acid: 100 μM; glycerol: 100 μM; AICAR: 100 μM). Then cells were further incubated in absence of both IL-2 and metabolites for 36 h to induce the apoptosis/dead. For Tcf1^+CD8^+ differentiation study, cells were activated with antigen peptide as above, followed by thoroughly washing, and incubation with metabolites in presence of IL-2 for 3 days. […] Tcf1^+CD8^+, CD44^+CD62L^+CD8^+ and survival (stained with Annexin V-APC and PI) T cells were detected via flow cytometry.

[6] = test system: CT26 colon carcinoma cells; test: CT26 tumor model, orally administered metabolites plus α-PD-1; format: in vivo, BALB/c mice; conditions: oral gavage 3 times every 4 days (DHB 2.4 mg, 3-methylhistidine 3 mg per mouse) plus α-PD-1 i.p.
Method: FIG. 6: a) Therapeutic treatment regimen. BALB/c mice were s.c. inoculated with 1.5×10^5 CT26 colon carcinoma cells. The candidate agents were orally administrated 3 times every 4 days, 100 μg α-PD-1 was injected i.p. on days 10, 14, 18 and 22. b) Average tumor growth, c) individual tumor growth. Data represent the mean±s.e.m. (n=4-5).
as §3, with “For oral administration study, the mice were injected with 3-methylhistidine (dose: 3 mg per mouse), sodium hippurate (dose: 3 mg per mouse), disodium sebacate (dose: 3 mg per mouse), sodium ferulate (dose: 3 mg per mouse), or DHB (dose: 2.4 mg per mouse) in PBS buffer for 3 times every 4 days. α-PD-1 was injected on days 10, 14, 18 and 22.” left out, “Tumor-bearing mice were euthanized when the tumor size reached 1.5 cm in any diameter or when the animals became moribund with severe weight loss (>20%) or tumor ulceration.” left out

OT-I CD8+ T cells [7] = test: CD8+ T cell survival upon IL-2 withdrawal (Annexin V/PI); format: cell-based, mice; conditions: dependent on the dose of metabolites
Method: FIG. 4: a) OT-I CD8+ T cells were cultured with different metabolites in vitro as indicated, b,c) shown are the level of survival CD8+ T cells (Annexin V^−PI^−) as well as the representative flow cytometry plots on day 5.5. Data represent the mean±s.e.m. (n=5).
as §4, with “days.” for “days. Metabolites were added during this incubation (arginine: 3 mM, 1 mM; 3-methylhistidine: 3 mM, 1 mM, 500 μM, 100 μM; N-acetylneuraminate: 100 μM; disodium sebacate: 100 μM; DHB: 100 μM, 50 μM, 20 μM; pantothenate: 100 μM; γ-aminobutyric acid: 100 μM; glycerol: 100 μM; AICAR: 100 μM). Then cells were further incubated in absence of both IL-2 and metabolites for 36 h to induce the apoptosis/dead. For Tcf1^+CD8^+ differentiation study, cells were activated with antigen peptide as above, followed by thoroughly washing, and incubation with metabolites in presence of IL-2 for 3 days.”

cancer cells = conditions: reported in literature (Eroglu et al.); cited from earlier work
tumor = conditions: reported in literature (Geiger et al.); cited from earlier work
[8] = test system: CT26 colon carcinoma cells; test: CT26 tumor model, oral prodrug-based lipid formulation plus α-PD-1; format: in vivo, BALB/c mice
Method: FIG. 9: a) Scheme showing the preparation of formulation encapsulating DHB prodrug. b) Therapeutic treatment regimen. BALB/c mice were s.c. inoculated with 1.5×10^5 CT26 colon carcinoma cells. The prodrug #201 (0.5 mg per dose) or #905 (1 mg per dose) were orally administrated every other day, respectively. 100 μg α-PD-1 was injected i.p. on days 11, 15, and 19. Shown are the (c) average tumor growth; AH1-specific CD8+ T cells in PBMCs on days (d) 18 and (e) 24. Tumor microenvironment analysis: (f) immune cells (CD45^+ cells) infiltration, (g) CD8^+ T cells, (h) CD44^+CD62L^+ central memory CD8+ T cells, and (i) AH1-specific CD8^+ T cells in tumor tissue on day 25. Data represent the mean±s.e.m. (n=5).
The CT26 tumor model was established as above. The formulation containing prodrug #201 or #905 was orally administered starting on day 8 and performed every other day. α-PD-1 antibody (100 μg per dose) was i.p. injected on days 11, 15, and 19. The PBMCs were obtained on days 18 and 24 and stained with PE-tagged peptide-MHC tetramer (H-2L^d-restricted SPSYVYHQF). Mice were euthanized on day 25 and tumor tissues were cut into small pieces and incubated with collagenase type IV (1 mg ml-1) and DNase I (0.1 mg ml-1) under gentle shaking. After 30 min, the cell suspension was filtered through a 70-μm strainer. The cells were washed with fluorescence-activated cell sorting (FACS) buffer and blocked with CD16/32 antibody. The cells were then stained with the designated antibodies: efluor450, FITC-CD44 rat anti-human/mouse, PE-CD62L monoclonal antibody, and APC-CD8 rat anti-mouse, PE-Tcf1/Tcf7 rabbit monoclonal antibody, APC-efluor780-Cd45 Rat anti Mouse (Clone: 30 F11), PE-AH1-specific tetramer. Cells were analyzed by flow cytometry.

[9] = Encapsulation of DHB-based prodrugs in lipid-based formulation; format: physicochemical; conditions: oleic acid, Tween 80, PBS emulsion
Method: The DHB-based prodrugs were synthesized by the Medicinal Chemistry Core in University of Michigan. To prepare the formulation, the prodrug #201 or #905 (4 mg) was added to the mixture of oleic acid (45 μL) and Tween 80 (25 μL) and incubated overnight to equilibrate and allow the prodrug to dissolve. Then an aqueous phase consisting of PBS buffer was added, and the formulation emulsified by ultrasonication with an ultrasonic processor.

Cn1cncc1C[C@H](N)C(=O)O [3-methylhistidine]
tumor growth in vivo [1]: did not inhibit the tumor growth | induction of central memory CD8+ T cells in the absence of dendritic cells (OT-I CD8+ T cells [2]): can also induce central memory CD8^+ T cells | systemic antitumor efficacy of α-PD-1 treatment and CT26 tumor growth ([3]; intratumoral every other day (DHB 0.5 mg, 3-methylhistidine 1 mg per mouse) plus α-PD-1 i.p.): improved the systemic antitumor efficacy of α-PD-1 treatment and slowed down the CT26 tumors growth | tumor-free mice on day 70 ([3]; intratumoral metabolite plus α-PD-1 i.p.): 80% | frequency of Tcf1+CD8+ T cells (OT-I CD8+ T cells [4]): increased the frequency | differentiation of CD44+CD62L+ central memory CD8+ T cells (OT-I CD8+ T cells [5]): significantly increased the differentiation | efficacy of α-PD-1 treatment [6]: improved the efficacy of α-PD-1 treatment | survival of activated CD8+ T cells (OT-I CD8+ T cells [7]): significantly increased the survival

COc1cc(/C=C/C(=O)O)ccc1O [Ferulic acid]
apoptosis in cancer cells (cancer cells): can induce apoptosis

N=C(N)NCCC[C@H](N)C(=O)O [L-arginine]
antitumor effect in vivo (tumor): improve the antitumor effect in vivo | differentiation of CD44+CD62L+ central memory CD8+ T cells (OT-I CD8+ T cells [5]): significantly increased the differentiation | survival of activated CD8+ T cells (OT-I CD8+ T cells [7]): significantly increased the survival

CCOC(=O)c1ccc(OC(=O)C(C)(C)C)c(OC(=O)C(C)(C)C)c1 [Prodrug #201, 4-(ethoxycarbonyl)-1,2-phenylene bis(2,2-dimethylpropanoate)]
infiltration of immune cells (CD45+ cells), AH1-specific CD8+ T cells and CD44+CD62L+ central memory CD8+ T cells in tumor tissue ([8]; oral formulation plus α-PD-1, day 25): promoted the infiltration | frequency of AH1-specific CD8+ T cells among PBMCs ([8]; oral formulation plus α-PD-1, days 18 and 24): increased the frequency | tumor growth ([8]; orally administered lipid formulation, 0.5 mg per dose every other day, plus α-PD-1): substantially slowed down the tumor growth | encapsulation in lipid-based dose forms [9]: can be successfully encapsulated

— patent US20240299299A1, “COMPOSITIONS AND METHODS FOR INCREASING THE EFFICACY OF IMMUNOTHERAPIES AND VACCINES” (The Regents of the University of Michigan, priority 2021, published 2024)
